System: C. elegans
Assay: Consumption of GFP-expressing bacteria by a culture of C. elegans (fluorescent plate reader)
Format: in vivo, Caenorhabditis elegans
Description: Two cultures of C. elegans and GFP-expressing bacteria were placed in microtiter wells. In one well, a lethal concentration of 10 nanomolar ivermectin was placed. The GFP fluorescence in the wells was determined by a fluorescent plate reader instrument at the initial time, and after two days of culture.
As the C. elegans grow and reproduce, the E. coli lawn is diminished until no bacteria remain. Therefore, the reduction of the bacterial lawn is a measurement of an actively feeding population of C. elegans. The rate of decrease of the lawn is proportional to the number of feeding animals present. […] The consumption of bacteria can be used as an indirect indicator of the distribution of animals. Substances can be spotted onto a substrate in an array, and a uniform lawn of bacteria placed on the substrate, overlaying the array. A test population of C. elegans can be introduced and incubated for a suitable time period to allow consumption of the lawn. If the animals are attracted to a substance, then they will move to that region of the substrate and the bacterial lawn will be diminished at that spot in comparison to the surrounding lawn. Conversely, if a substance repels the animals, then the bacterial lawn at that spot will not be consumed. Thus, bacterial consumption can be used to assay the growth and location of a population of nematodes. If a GFP-expressing bacterial strain is used (Chalfie, et al., supra) as was done in the experiment of Example 3, the variations in bacterial density can be easily detected, for example, by photographing fluorescence intensity.
In this experiment, GFP-expressing bacteria are placed in two microtiter wells along with a population of C. elegans. Because the bacteria express GFP, the amount of bacteria can easily be assayed using a fluorescent plate reader (Cytoflour, Perspective Biosystems). […] Initially, both wells show equivalent levels of bacteria. […] FIG. 3 depicts this experiment. Thus, bacterial consumption can be used to assay the growth and feeding of a population of nematodes. If a GFP-expressing bacterial strain is used (Chalfie, et al., supra) as was done in the experiment shown in FIG. 3, the variations in bacterial density can be easily visualized by photographing fluorescence intensity.

Substance: ivermectin
- GFP fluorescence of bacteria in the well (Relative Intensity) (10 nanomolar ivermectin, after two days of culture): GFP fluorescence increases
- Effect on C. elegans (in vivo): kills C. elegans
- Amount of GFP-expressing bacteria in the well (ivermectin-containing well, after 4 days of culture): shows bacterial growth
- Lethal concentration for C. elegans (microtiter well culture with GFP-expressing bacteria): 10 nM
